In patent publication US9693556B2, “Herbicidal pyridazinone derivatives” (SYNGENTA LIMITED, priority 2011, dated 2017):

Legend:
Format in all cases: in vivo
Solanum nigrum (SOLNI) [1] = assay: Post-emergence herbicidal glasshouse test on Solanum nigrum; conditions: post-emergence; 1000 g/h; evaluated after 13 days
Summary of the method: (§1)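 Scored on a five-point scale (1 = 0-19% to 5 = 80-100% damage) 13 days after treatment. Application rate 1000 g/h in acetone/water (50:50) containing 0.5% Tween 20, sprayed one day post-sowing for pre-emergence or eight days for post-emergence; glasshouse at 24/16° C, 14 h light, 65% humidity.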

[2] = test system: Ipomoea hederacea (IPOHE); assay: Pre-emergence herbicidal glasshouse test on Ipomoea hederacea; conditions: pre-emergence; 1000 g/h; evaluated after 13 days
Summary of the method: as §1

[3] = test system: Ipomoea hederacea (IPOHE); assay: Post-emergence herbicidal glasshouse test on Ipomoea hederacea; conditions: post-emergence; 1000 g/h; evaluated after 13 days
Summary of the method: as §1

[4] = test system: Echinochloa crus-galli (ECHCG); assay: Pre-emergence herbicidal glasshouse test on Echinochloa crus-galli; conditions: pre-emergence; 1000 g/h; evaluated after 13 days
Summary of the method: as §1

Setaria faberi (SETFA) [5] = assay: Post-emergence herbicidal glasshouse test on Setaria faberi; conditions: post-emergence; 1000 g/h; evaluated after 13 days
Summary of the method: as §1

[6] = test system: Amaranthus retoflexus (AMARE); assay: Post-emergence herbicidal glasshouse test on Amaranthus retoflexus; conditions: post-emergence; 1000 g/h; evaluated after 13 days
Summary of the method: as §1

[7] = test system: Amaranthus retoflexus (AMARE); assay: Pre-emergence herbicidal glasshouse test on Amaranthus retoflexus; conditions: pre-emergence; 1000 g/h; evaluated after 13 days
Summary of the method: as §1

[8] = test system: Alopecurus myosuroides (ALOMY); assay: Pre-emergence herbicidal glasshouse test on Alopecurus myosuroides; conditions: pre-emergence; 1000 g/h; evaluated after 13 days
Summary of the method: as §1

Setaria faberi (SETFA) [9] = assay: Pre-emergence herbicidal glasshouse test on Setaria faberi; conditions: pre-emergence; 1000 g/h; evaluated after 13 days
Summary of the method: as §1

[10] = test system: Alopecurus myosuroides (ALOMY); assay: Post-emergence herbicidal glasshouse test on Alopecurus myosuroides; conditions: post-emergence; 1000 g/h; evaluated after 13 days
Summary of the method: as §1

Solanum nigrum (SOLNI) [11] = assay: Pre-emergence herbicidal glasshouse test on Solanum nigrum; conditions: pre-emergence; 1000 g/h; evaluated after 13 days
Summary of the method: as §1

[12] = test system: Echinochloa crus-galli (ECHCG); assay: Post-emergence herbicidal glasshouse test on Echinochloa crus-galli; conditions: post-emergence; 1000 g/h; evaluated after 13 days
Summary of the method: as §1

Row | SMILES | POST Application SOLNI herbicidal damage (five point scale) (Solanum nigrum (SOLNI) [1]) | PRE Application IPOHE herbicidal damage (five point scale) [2] | POST Application IPOHE herbicidal damage (five point scale) [3] | PRE Application ECHCG herbicidal damage (five point scale) [4] | POST Application SETFA herbicidal damage (five point scale) (Setaria faberi (SETFA) [5]) | POST Application AMARE herbicidal damage (five point scale) [6] | PRE Application AMARE herbicidal damage (five point scale) [7] | PRE Application ALOMY herbicidal damage (five point scale) [8] | PRE Application SETFA herbicidal damage (five point scale) (Setaria faberi (SETFA) [9]) | POST Application ALOMY herbicidal damage (five point scale) [10] | PRE Application SOLNI herbicidal damage (five point scale) (Solanum nigrum (SOLNI) [11]) | POST Application ECHCG herbicidal damage (five point scale) [12]
1 | Cn1ncc(-n2ccc(C(F)(F)F)c(-c3cccc(S(C)(=O)=O)c3)c2=O)c(O)c1=O [Compound 7.023] | 5 (5=80-100% damage) | 2 (2=20-39% damage) | 1 (1=0-19% damage) | 2 (2=20-39% damage) | 4 (4=60-79% damage) | 5 (5=80-100% damage) | 5 (5=80-100% damage) | 2 (2=20-39% damage) | 4 (4=60-79% damage) | 1 (1=0-19% damage) | 5 (5=80-100% damage) | 4 (4=60-79% damage)
2 | Cc1ccc(-c2c(C(F)(F)F)ccn(-c3cnn(C)c(=O)c3O)c2=O)cc1[N+](=O)[O-] [Compound 7.027] | 5 (5=80-100% damage) | 1 (1=0-19% damage) | 2 (2=20-39% damage) | 5 (5=80-100% damage) | 5 (5=80-100% damage) | 5 (5=80-100% damage) | 5 (5=80-100% damage) | 3 (3=40-59% damage) | 3 (3=40-59% damage) | 3 (3=40-59% damage) | 5 (5=80-100% damage) | 5 (5=80-100% damage)
3 | Cn1ncc(-n2ccc(C(F)(F)F)c(-c3cccc(Cl)c3Cl)c2=O)c(O)c1=O [Compound 7.029] | 5 (5=80-100% damage) | 1 (1=0-19% damage) | 4 (4=60-79% damage) | 2 (2=20-39% damage) | 2 (2=20-39% damage) | 5 (5=80-100% damage) | 5 (5=80-100% damage) | 2 (2=20-39% damage) | 1 (1=0-19% damage) | 3 (3=40-59% damage) | 5 (5=80-100% damage) | 5 (5=80-100% damage)
4 | Cc1c(Cl)cccc1-c1c(C(F)(F)F)ccn(-c2cnn(C)c(=O)c2O)c1=O [Compound 7.030] | 5 (5=80-100% damage) | 4 (4=60-79% damage) | 5 (5=80-100% damage) | 5 (5=80-100% damage) | 5 (5=80-100% damage) | 5 (5=80-100% damage) | 5 (5=80-100% damage) | 5 (5=80-100% damage) | 4 (4=60-79% damage) | 5 (5=80-100% damage) | 5 (5=80-100% damage) | 5 (5=80-100% damage)
